# Test results published in ChEMBL document CHEMBL3885881, “DrugMatrix”.
# Species: Rattus norvegicus
# Test: DrugMatrix - Regimen: Daily Repeat
# Assay type: toxicity, organism-based, Sprague-Dawley
# Set-up: regimen Daily Repeat, gender Male, age 6-8 weeks
# Conditions: in vivo, po, route oral GAVAGE, vehicle 100 % WATER; for BASOPHIL / EOSINOPHIL / ERYTHROCYTE COUNT / HEMATOCRIT / HEMOGLOBIN / LEUKOCYTE COUNT / LYMPHOCYTE / MEAN CORPUSCULAR HEMOGLOBIN / MEAN CORPUSCULAR HEMOGLOBIN CONCENTRATION / MEAN CORPUSCULAR VOLUME / MONOCYTE / NEUTROPHIL / PLATELET COUNT: tissue Blood; for ALANINE AMINOTRANSFERASE / ALBUMIN / ALKALINE PHOSPHATASE / ASPARTATE AMINOTRANSFERASE / BLOOD UREA NITROGEN / CARBON DIOXIDE / CHLORIDE / CHOLESTEROL / CREATINE PHOSPHOKINASE / CREATININE / GLUCOSE / LACTATE DEHYDROGENASE / LIPASE / PHOSPHORUS / POTASSIUM / SODIUM / TOTAL BILIRUBIN / TOTAL PROTEIN / URIC ACID: tissue Plasma
# [1] = 0 mg/kg, 96 h, dose level Control, time 4 day
# [2] = 0 mg/kg, […], dose level Control, time 6 day
# [3] = 0 mg/kg, […], dose level Control, time 14 day
# [4] = 4000 mg/kg, 96 h, dose level High, time 4 day
# [5] = 4000 mg/kg, […], dose level High, time 6 day
# [6] = 4000 mg/kg, […], dose level High, time 14 day
structure (smiles),measurement,setting,value
CC(C)=O [ACETONE],BASOPHIL,[1],0.47%
same,EOSINOPHIL,[1],0.58%
same,ERYTHROCYTE COUNT,[1],6.84 x10E6/uL
same,HEMATOCRIT,[1],44.27%
same,HEMOGLOBIN,[1],14.08 G/DL
same,LEUKOCYTE COUNT,[1],13.39 x10E3/uL
same,LYMPHOCYTE,[1],83.57%
same,MEAN CORPUSCULAR HEMOGLOBIN,[1],20.57 pg
same,MEAN CORPUSCULAR HEMOGLOBIN CONCENTRATION,[1],31.77 G/DL
same,MEAN CORPUSCULAR VOLUME,[1],64.68 fL
same,MONOCYTE,[1],1.92%
same,NEUTROPHIL,[1],12.95%
same,PLATELET COUNT,[1],1533.67 x10E3/uL
same,ALANINE AMINOTRANSFERASE,[1],28.17 u/L
same,ALBUMIN,[1],3.82 G/DL
same,ALKALINE PHOSPHATASE,[1],354.33 u/L
same,ASPARTATE AMINOTRANSFERASE,[1],73.83 u/L
same,BLOOD UREA NITROGEN,[1],16 mg/dL
same,CARBON DIOXIDE,[1],27.17 mmol/L
same,CHLORIDE,[1],104.83 MEQ/L
same,CHOLESTEROL,[1],83.33 mg/dL
same,CREATINE PHOSPHOKINASE,[1],288 u/L
same,CREATININE,[1],0.33 mg/dL
same,GLUCOSE,[1],181.33 mg/dL
same,LACTATE DEHYDROGENASE,[1],173.17 u/L
same,LIPASE,[1],17.67 u/L
same,PHOSPHORUS,[1],11.5 mg/dL
same,POTASSIUM,[1],6.8 MEQ/L
same,SODIUM,[1],147 MEQ/L
same,TOTAL BILIRUBIN,[1],0.35 mg/dL
same,TOTAL PROTEIN,[1],6.35 G/DL
same,URIC ACID,[1],1.55 mg/dL
same,BASOPHIL,[2],0.33%
same,EOSINOPHIL,[2],0.85%
same,ERYTHROCYTE COUNT,[2],6.98 x10E6/uL
same,HEMATOCRIT,[2],38.58%
same,HEMOGLOBIN,[2],14.25 G/DL
same,LEUKOCYTE COUNT,[2],11.01 x10E3/uL
same,LYMPHOCYTE,[2],85.07%
same,MEAN CORPUSCULAR HEMOGLOBIN,[2],20.47 pg
same,MEAN CORPUSCULAR HEMOGLOBIN CONCENTRATION,[2],31.45 G/DL
same,MEAN CORPUSCULAR VOLUME,[2],64.9 fL
same,MONOCYTE,[2],1.9%
same,NEUTROPHIL,[2],11.42%
same,PLATELET COUNT,[2],1289.67 x10E3/uL
same,BASOPHIL,[3],0.52%
same,EOSINOPHIL,[3],0.55%
same,ERYTHROCYTE COUNT,[3],7.72 x10E6/uL
same,HEMATOCRIT,[3],51.87%
same,HEMOGLOBIN,[3],15.32 G/DL
same,LEUKOCYTE COUNT,[3],16.2 x10E3/uL
same,LYMPHOCYTE,[3],85.13%
same,MEAN CORPUSCULAR HEMOGLOBIN,[3],19.85 pg
same,MEAN CORPUSCULAR HEMOGLOBIN CONCENTRATION,[3],29.52 G/DL
same,MEAN CORPUSCULAR VOLUME,[3],67.17 fL
same,MONOCYTE,[3],1.7%
same,NEUTROPHIL,[3],11.6%
same,PLATELET COUNT,[3],1104.17 x10E3/uL
same,ALANINE AMINOTRANSFERASE,[2],28.17 u/L
same,ALBUMIN,[2],3.78 G/DL
same,ALKALINE PHOSPHATASE,[2],385.33 u/L
same,ASPARTATE AMINOTRANSFERASE,[2],78 u/L
same,BLOOD UREA NITROGEN,[2],16.83 mg/dL
same,CARBON DIOXIDE,[2],26.67 mmol/L
same,CHLORIDE,[2],106.83 MEQ/L
same,CHOLESTEROL,[2],82.67 mg/dL
same,CREATINE PHOSPHOKINASE,[2],225.5 u/L
same,CREATININE,[2],0.27 mg/dL
same,GLUCOSE,[2],179.5 mg/dL
same,LACTATE DEHYDROGENASE,[2],98.33 u/L
same,LIPASE,[2],14.67 u/L
same,PHOSPHORUS,[2],12.28 mg/dL
same,POTASSIUM,[2],7.03 MEQ/L
same,SODIUM,[2],150.33 MEQ/L
same,TOTAL BILIRUBIN,[2],0.38 mg/dL
same,TOTAL PROTEIN,[2],6.45 G/DL
same,URIC ACID,[2],1.6 mg/dL
same,ALANINE AMINOTRANSFERASE,[3],37 u/L
same,ALBUMIN,[3],4.13 G/DL
same,ALKALINE PHOSPHATASE,[3],342 u/L
same,ASPARTATE AMINOTRANSFERASE,[3],71 u/L
same,BLOOD UREA NITROGEN,[3],16.5 mg/dL
same,CARBON DIOXIDE,[3],28.17 mmol/L
same,CHLORIDE,[3],104 MEQ/L
same,CHOLESTEROL,[3],70.67 mg/dL
same,CREATINE PHOSPHOKINASE,[3],287.67 u/L
same,CREATININE,[3],0.38 mg/dL
same,GLUCOSE,[3],150.17 mg/dL
same,LACTATE DEHYDROGENASE,[3],81.33 u/L
same,LIPASE,[3],16 u/L
same,PHOSPHORUS,[3],11.32 mg/dL
same,POTASSIUM,[3],6.22 MEQ/L
same,SODIUM,[3],147.33 MEQ/L
same,TOTAL BILIRUBIN,[3],0.43 mg/dL
same,TOTAL PROTEIN,[3],6.55 G/DL
same,URIC ACID,[3],1.38 mg/dL
same,BASOPHIL,[4],0.37%
same,EOSINOPHIL,[4],0.2%
same,ERYTHROCYTE COUNT,[4],7.37 x10E6/uL
same,HEMATOCRIT,[4],47.5%
same,HEMOGLOBIN,[4],15.37 G/DL
same,LEUKOCYTE COUNT,[4],10.01 x10E3/uL
same,LYMPHOCYTE,[4],77.97%
same,MEAN CORPUSCULAR HEMOGLOBIN,[4],20.83 pg
same,MEAN CORPUSCULAR HEMOGLOBIN CONCENTRATION,[4],32.37 G/DL
same,MEAN CORPUSCULAR VOLUME,[4],64.47 fL
same,MONOCYTE,[4],2.73%
same,NEUTROPHIL,[4],18.23%
same,PLATELET COUNT,[4],1486.67 x10E3/uL
same,ALANINE AMINOTRANSFERASE,[4],47 u/L
same,ALBUMIN,[4],3.73 G/DL
same,ALKALINE PHOSPHATASE,[4],277.67 u/L
same,ASPARTATE AMINOTRANSFERASE,[4],87.33 u/L
same,BLOOD UREA NITROGEN,[4],12.67 mg/dL
same,CARBON DIOXIDE,[4],30.67 mmol/L
same,CHLORIDE,[4],103.33 MEQ/L
same,CHOLESTEROL,[4],117.33 mg/dL
same,CREATINE PHOSPHOKINASE,[4],390.33 u/L
same,CREATININE,[4],0.53 mg/dL
same,GLUCOSE,[4],176.33 mg/dL
same,LACTATE DEHYDROGENASE,[4],159 u/L
same,LIPASE,[4],27 u/L
same,PHOSPHORUS,[4],11 mg/dL
same,POTASSIUM,[4],5.6 MEQ/L
same,SODIUM,[4],149 MEQ/L
same,TOTAL BILIRUBIN,[4],0.27 mg/dL
same,TOTAL PROTEIN,[4],6.37 G/DL
same,URIC ACID,[4],1.23 mg/dL
same,BASOPHIL,[5],0.23%
same,EOSINOPHIL,[5],0.27%
same,ERYTHROCYTE COUNT,[5],7.31 x10E6/uL
same,HEMATOCRIT,[5],47.27%
same,HEMOGLOBIN,[5],14.77 G/DL
same,LEUKOCYTE COUNT,[5],10.16 x10E3/uL
same,LYMPHOCYTE,[5],86.07%
same,MEAN CORPUSCULAR HEMOGLOBIN,[5],20.17 pg
same,MEAN CORPUSCULAR HEMOGLOBIN CONCENTRATION,[5],31.23 G/DL
same,MEAN CORPUSCULAR VOLUME,[5],64.67 fL
same,MONOCYTE,[5],2.77%
same,NEUTROPHIL,[5],9.93%
same,PLATELET COUNT,[5],1168.67 x10E3/uL
same,BASOPHIL,[6],0.3%
same,EOSINOPHIL,[6],0.38%
same,ERYTHROCYTE COUNT,[6],8.11 x10E6/uL
same,HEMATOCRIT,[6],55.22%
same,HEMOGLOBIN,[6],16.28 G/DL
same,LEUKOCYTE COUNT,[6],7.38 x10E3/uL
same,LYMPHOCYTE,[6],78.4%
same,MEAN CORPUSCULAR HEMOGLOBIN,[6],20.06 pg
same,MEAN CORPUSCULAR HEMOGLOBIN CONCENTRATION,[6],29.48 G/DL
same,MEAN CORPUSCULAR VOLUME,[6],68.1 fL
same,MONOCYTE,[6],2.1%
same,NEUTROPHIL,[6],18.48%
same,PLATELET COUNT,[6],1123.2 x10E3/uL
same,ALANINE AMINOTRANSFERASE,[5],59.33 u/L
same,ALBUMIN,[5],3.83 G/DL
same,ALKALINE PHOSPHATASE,[5],274 u/L
same,ASPARTATE AMINOTRANSFERASE,[5],91.33 u/L
same,BLOOD UREA NITROGEN,[5],17.33 mg/dL
same,CARBON DIOXIDE,[5],27.67 mmol/L
same,CHLORIDE,[5],107 MEQ/L
same,CHOLESTEROL,[5],112 mg/dL
same,CREATINE PHOSPHOKINASE,[5],187.67 u/L
same,CREATININE,[5],0.37 mg/dL
same,GLUCOSE,[5],172.33 mg/dL
same,LACTATE DEHYDROGENASE,[5],78 u/L
same,LIPASE,[5],11.33 u/L
same,PHOSPHORUS,[5],12.07 mg/dL
same,POTASSIUM,[5],6.83 MEQ/L
same,SODIUM,[5],152 MEQ/L
same,TOTAL BILIRUBIN,[5],0.33 mg/dL
same,TOTAL PROTEIN,[5],6.57 G/DL
same,URIC ACID,[5],1.5 mg/dL
same,ALANINE AMINOTRANSFERASE,[6],84.2 u/L
same,ALBUMIN,[6],4.12 G/DL
same,ALKALINE PHOSPHATASE,[6],230.4 u/L
same,ASPARTATE AMINOTRANSFERASE,[6],95.6 u/L
same,BLOOD UREA NITROGEN,[6],15.2 mg/dL
same,CARBON DIOXIDE,[6],30.6 mmol/L
same,CHLORIDE,[6],104 MEQ/L
same,CHOLESTEROL,[6],129.2 mg/dL
same,CREATINE PHOSPHOKINASE,[6],256 u/L
same,CREATININE,[6],0.54 mg/dL
same,GLUCOSE,[6],144.8 mg/dL
same,LACTATE DEHYDROGENASE,[6],59 u/L
same,LIPASE,[6],22.2 u/L
same,PHOSPHORUS,[6],11.14 mg/dL
same,POTASSIUM,[6],6.2 MEQ/L
same,SODIUM,[6],149.8 MEQ/L
same,TOTAL BILIRUBIN,[6],0.42 mg/dL
same,TOTAL PROTEIN,[6],6.66 G/DL
same,URIC ACID,[6],1.5 mg/dL
